Measured values reported in article PMC9826262, “Discovery of Benzo[d]imidazole‐6‐sulfonamides as Bromodomain and Extra‐Terminal Domain (BET) Inhibitors with Selectivity for the First Bromodomain” (Chemmedchem, 2022).
≈ marks a conversion by molar mass, not a printed value.

How the values were obtained:
[1] = CYPs and UGTs dual-activity microsomal stability; format: in vitro ADME; conditions: human liver microsomes; alamethicin, NADPH and UDPGA cofactors; 37 °C, 60 min
Procedure: In this study, the CYPs and UGTs “dual‐activity” microsomal stability assay was carried out to follow the loss of the test compounds over time under CYP‐ and UGT‐mediated metabolic pathways. In detail, the compounds were added to human liver microsomes in the presence of alamethicin, NADPH and UDPGA as cofactors.[24] Alamethicin, a pore‐forming peptide, was used to activate UGTs in human liver microsomes. Testosterone was used as positive control while the negative control was prepared by incubation of the compounds without cofactors up to 60 min. The negative control is essential to detect problems such as non‐specific protein binding or heat instability.
Instrumentation and chromatographic conditions. The metabolic stability of investigated compounds was monitored using a Nexera UHPLC system (Shimadzu, Kyoto, Japan) consisting of a CBM‐20A controller, two LC‐30AD pumps, an SPD‐M20A photo diode array detector, a CTO‐20AC column oven and, a SIL‐30AC autosampler. The chromatographic analyses were accomplished on a Kinetex® Evo C18 column, 150×2.1 mm×2.6 μm (Phenomenex®, Bologna, Italy) maintained at 40 °C. The optimal mobile phase consisted of 0.1 % HCOOH/H2O v/v (A) and 0.1 % HCOOH/ACN v/v (B) delivered at constant flow rate of 0.5 mL/min ^−1. Analysis was performed in gradient elution as follows: 0–8.00 min, 5–95 % B; 8.00–10.00 min, isocratic to 95 % B; then five minutes for column re‐equilibration. Data acquisition was set in the range 190–800 nm and chromatograms were monitored at 254 nm.
In vitro drug metabolism using human liver microsomes. 25 μL of 5 mg/mL human […] microsomes (Thermo Fisher Scientific, Bremen, Germany) were pre‐incubated with 0.625 μL of 100 μg/mL alamethicin. Then 2.5 μL of sample (5 mM) with 168 μL of 100 mM phosphate buffer (pH 7.4), 4 μL of 500 mM MgCl2 were added, the mixture was incubated at 37 °C for 5 min. Optimal UGT activity can be achieved by the addition of MgCl2 and alamethicin as pore forming antibiotic. These components allow for the efficient transfer of a glucuronide product and the cofactor uridine 5′‐diphospho‐α‐D‐glucuronic acid (UDPGA) within the microsomal matrix. The reaction has started by adding 50 μL of mix NADPH 20 mM and UDP‐GlcUA 20 mM as cofactors (1 : 1 v/v) and carried out 37 °C for 60 min in a Thermomixer comfort (Eppendorf, Hamburg, Germany). The reaction was stopped by the addition of 200 μL ice‐cold acetonitrile and then samples were centrifuged at 14,000 rpm at 25 °C for 5 min (Eppendorf® microcentrifuge 5424, Hamburg, Germany). The supernatants were collected and injected in UHPLC. The control at 0 min was obtained by addition of ice‐cold acetonitrile immediately after incubation with microsomes. […]

[2] = Nephelometric solubility determination; format: physicochemical; conditions: for solubility: aqueous buffer, kinetic from dmso stock, PBS with 1 % DMSO, tested at 50 and 100 μM, room temperature, read-out: Solubility (highest concentration where no precipitate was detected)
Procedure: Solubility determination. Solubility of the compounds was determined using Nepheloskan Ascent® (Labsystems). The experiments were performed at room temperature in 96‐well plates in a final volume of 300 μL. Each compound was tested in quadruplicate at the concentrations of 50 and 100 μM in PBS with 1 % DMSO. The measurements were performed at 4 different time points (T0, 30 min, 60 min, 90 min) from the preparation of the samples. Data obtained were compared to control (PBS with 1 % DMSO) and the ratio sample/control was determined for each compound. Compounds are considered soluble if the ratio is≤3.

[3] = in vitro; conditions: PAMPA, pH 7.4
Procedure: Membrane permeability was estimated by the well‐validated parallel artificial membrane permeability assay (PAMPA) technique.[17, 26]
Parallel Artificial Membrane Permeability Assay (PAMPA). Donor solution (0.2 mM) was prepared by diluting 20 mM dimethyl sulfoxide (DMSO) compound stock solution using phosphate buffer (pH 7.4, 0.01 M). Filters were coated with 5 μL of a 1 % (w/v) dodecane solution of L‐α‐phosphatidylcholine. Donor solution (150 μL) was added to each well of the filter plate. To each well of the acceptor plate, 300 μL of solution (5 % DMSO in phosphate buffer) was added. […] The sandwich was incubated for 24 h at room temperature under gentle shaking. After the incubation time, the sandwich plates were separated and 250 μL of the acceptor plate was transferred to a UV quartz microtiter plate and measured by UV spectroscopy, using a Multiskan GO microplate spectrophotometer (Thermo Fisher Scientific) at 250–500 nm at a step of 5 nm. Reference solutions (250 μL) were prepared diluting the sample stock solutions to the same concentration as that with no membrane barrier.
In this equation, VR is the volume of the acceptor compartment (0.3 cm^3), VD is the donor volume (0.15 cm^3), A is the accessible filter area (0.24 cm^2), and t is the incubation time in seconds.

[4] = test system: BD1 and BD2 of BET proteins (BRD2, BRD3, BRD4 and BRDT); test: Protein stability shift assay (ΔTm), BET bromodomains; format: binding; conditions: compound 10 μM; protein 2 μM
Procedure: (§1) The compounds were tested at 10 μM fixed dose and the pan‐BET inhibitor 1 was used as a reference compound.[22] The results obtained from this screening supported our design strategy.
(§2) Protein stability shift assay. Thermal melting experiments were carried out using an Mx3005p Real Time PCR machine (Stratagene). Proteins were buffered in 10 mM HEPES pH 7.5, 500 mM NaCl and assayed in a 96‐well plate at a final concentration of 2 μM in 20 μL volume. Compounds were added at a final concentration of 10 μM. SYPRO Orange (Molecular Probes) was added as a fluorescence probe at a dilution of 1 : 1000. Excitation and emission filters for the SYPRO‐Orange dye were set to 465 nm and 590 nm, respectively. The temperature was raised with a step of 3 °C per minute from 25 °C to 96 °C and fluorescence readings were taken at each interval. The temperature dependence of the fluorescence during the protein denaturation process was approximated by the equation yT=yF+yU-yF/1+e^ΔuGT/RT
(§3) where ΔuG(T) is the difference in unfolding free energy between the folded and unfolded state, R is the gas constant and yF and yU are the fluorescence intensity of the probe in the presence of completely folded and unfolded protein, respectively. The baselines of the denatured and native states were approximated by a linear fit. The observed temperature shifts, ΔTm obs, were recorded as the difference between the transition midpoints of sample and reference wells containing protein without ligand in the same plate and determined by non‐linear least squares fit.

[5] = test system: BD1 of BRD4; parameters: method as in earlier work; conditions: ref 19b; cited from earlier work
[6] = test system: non‐BET bromodomain‐containing proteins (CREBBP, PB1 and PCAF); test: Protein stability shift assay (ΔTm), non-BET bromodomains; format: binding; conditions: compound 10 μM; protein 2 μM
Procedure: as §1, §2, §3

SMILES	ΔTm screening against BET bromodomains [4]	further results
Cc1cc(-c2nc3ccc(S(=O)(=O)Nc4ccc(C#N)cc4)cc3[nH]2)cc(C)c1O [9 b, N ‐(4‐cyanophenyl)‐2‐(4‐hydroxy‐3,5‐dimethylphenyl)‐1H‐benzo[d]imidazole‐6‐sulfonamide]	increase in the melting temperature of all BET proteins	CYPs and UGTs “dual‐activity” microsomal stability (percentage of the parent compound turnover) [1]: 16.3±0.5%; solubility [2]: 50 µM (≈ 20.9 µg/mL); Papp at 24 h, 0.2 mM [3]: 0.909 nm/s
CC(C)NCC(O)COc1cccc2ccccc12 (stereo not shown) [propranolol]		Papp at 24 h, 0.2 mM [3]: 19.1 nm/s
Cc1cc(-c2nc3ccc(S(N)(=O)=O)cc3[nH]2)cc(C)c1O [9 c, 2‐(4‐hydroxy‐3,5‐dimethylphenyl)‐1H‐benzo[d]imidazole‐6‐sulfonamide]	definitely lower affinity than 9 a and 9 b	
Cc1cc(/N=N/c2ccc(S(=O)(=O)Nc3ccccn3)cc2)c(N)cc1O [7 a, MS436, reference compound]		CYPs and UGTs “dual‐activity” microsomal stability (percentage of the parent compound turnover) [1]: 7.8±0.5%; Solubility at 100 μM ([2]; 100 μM, aqueous solution with 1 % DMSO): still soluble; solubility [2]: 100 µM (≈ 38.3 µg/mL); Papp at 24 h, 0.2 mM [3]: 0.103 nm/s
O=S(=O)(Nc1ccccn1)c1ccc2nc(-c3ccc(O)cc3O)[nH]c2c1 [9 p, 2‐(2,4‐dihydroxyphenyl)‐N‐(pyridin‐2‐yl)‐1H‐benzo[d]imidazole‐6‐sulfonamide]	active but non‐selective	
Cc1cc(-c2nc3ccc(S(=O)(=O)NCc4ccccn4)cc3[nH]2)cc(C)c1O [9 e, 2‐(4‐hydroxy‐3,5‐dimethylphenyl)‐N‐(pyridin‐2‐ylmethyl)‐1H‐benzo[d]imidazole‐6‐sulfonamide]	complete loss of activity	
Cc1cc(O)cc(C)c1-c1nc2ccc(S(=O)(=O)Nc3ccccn3)cc2[nH]1 [9 k, 2‐(4‐hydroxy‐2,6‐dimethylphenyl)‐N‐(pyridin‐2‐yl)‐1H‐benzo[d]imidazole‐6‐sulfonamide]	marked loss of activity	
O=S(=O)(Nc1ccccn1)c1ccc2nc(-c3cccc(O)c3)[nH]c2c1 [9 m, 2‐(3‐hydroxyphenyl)‐N‐(pyridin‐2‐yl)‐1H‐benzo[d]imidazole‐6‐sulfonamide]	almost completely inactive	
CNS(=O)(=O)c1ccc2nc(-c3cc(C)c(O)c(C)c3)[nH]c2c1 [9 d, 2‐(4‐hydroxy‐3,5‐dimethylphenyl)‐N‐methyl‐1H‐benzo[d]imidazole‐6‐sulfonamide]	definitely lower affinity than 9 a and 9 b	
COCC(COC)n1c(-c2cc(C)c(=O)n(C)c2)nc2cc(N3CCOCC3)ccc21 [Compound 8, I‐BET469]		Selectivity for BD1 over BD2 of BRD2, BRD3 and BRD4 [5]: 20 fold; pIC50 on BD1 of BRD4 [5]: 7.9
Cc1cc(-c2nc3ccc(S(=O)(=O)NC4CCCC4)cc3[nH]2)cc(C)c1O [9 h, N ‐cyclopentyl‐2‐(4‐hydroxy‐3,5‐dimethylphenyl)‐1H‐benzo[d]imidazole‐6‐sulfonamide]	affinity toward BETs similar to 9 a and 9 b	ΔTm screening, off-target binding (BD2 of BRDT and non-BET bromodomains) [6]: strong binding to BD2 of BRDT and other non‐BET bromodomain‐containing proteins
Cc1cc(-c2nc3ccc(S(=O)(=O)Nc4ccccn4)cc3[nH]2)ccc1O [9 j, 2‐(4‐hydroxy‐3‐methylphenyl)‐N‐(pyridin‐2‐yl)‐1H‐benzo[d]imidazole‐6‐sulfonamide]	marked loss of activity	
Cc1cc(-c2nc3ccc(S(=O)(=O)NC4CC4)cc3[nH]2)cc(C)c1O [9 g, N ‐cyclopropyl‐2‐(4‐hydroxy‐3,5‐dimethylphenyl)‐1H‐benzo[d]imidazole‐6‐sulfonamide]	partial loss of affinity toward BETs	ΔTm screening, off-target binding (BD2 of BRDT and non-BET bromodomains) [6]: strong off‐target binding
Cc1cc(-c2nc3ccc(S(=O)(=O)NC4CCCCC4)cc3[nH]2)cc(C)c1O [9 i, N ‐cyclohexyl‐2‐(4‐hydroxy‐3,5‐dimethylphenyl)‐1H‐benzo[d]imidazole‐6‐sulfonamide]	affinity toward BETs similar to 9 a and 9 b	ΔTm screening, off-target binding (BD2 of BRDT and non-BET bromodomains) [6]: strong binding to BD2 of BRDT and other non‐BET bromodomain‐containing proteins
O=S(=O)(Nc1ccccn1)c1ccc2nc(-c3ccc(O)cc3)[nH]c2c1 [9 l, 2‐(4‐hydroxyphenyl)‐N‐(pyridin‐2‐yl)‐1H‐benzo[d]imidazole‐6‐sulfonamide]	still active but significantly less selective	
O=S(=O)(Nc1ccccn1)c1ccc2nc(-c3ccc(Cl)cc3)[nH]c2c1 [9 n, 2‐(4‐chlorophenyl)‐N‐(pyridin‐2‐yl)‐1H‐benzo[d]imidazole‐6‐sulfonamide]	almost completely inactive	
Cc1cc(-c2nc3ccc(S(=O)(=O)NCc4cccnc4)cc3[nH]2)cc(C)c1O [9 f, 2‐(4‐hydroxy‐3,5‐dimethylphenyl)‐N‐(pyridin‐3‐ylmethyl)‐1H‐benzo[d]imidazole‐6‐sulfonamide]	complete loss of activity	
O=S(=O)(Nc1ccccn1)c1ccc2nc(-c3ccc(O)c(O)c3)[nH]c2c1 [9 o, 2‐(3,4‐dihydroxyphenyl)‐N‐(pyridin‐2‐yl)‐1H‐benzo[d]imidazole‐6‐sulfonamide]	not tolerated	
